IC50, selectivity ratio and Activity data for eight compounds are collected here from ChEMBL document CHEMBL4152218, “Novel hydrazide-hydrazone and amide substituted coumarin derivatives: Synthesis, cytotoxicity screening, microarray, radiolabeling and in vivo pharmacokinetic studies” (Eur J Med Chem, 2018).

The test system of data set [1] is PANC-1. Put plainly: Antiproliferative activity against human PANC1 cells after 48 hrs by resazurin dye-based fluorescence assay. It is filed as functional, cell-based. Particulars: PANC-1, 48 h.
Data set [2] concerns HepG2. Put plainly: Antiproliferative activity against human HepG2 cells after 48 hrs by resazurin dye-based fluorescence assay. It is filed as functional, cell-based. Particulars: HepG2, 48 h.
The test system of data set [3] is CCRF-CEM. Kind of data set: Antiproliferative activity against human CCRF-CEM cells after 48 hrs by resazurin dye-based fluorescence assay. It is filed as functional, cell-based.
The test system of data set [4] is hTERT-BJ. Kind of data set: Cytotoxicity against hTERT-BJ cells after 48 hrs by resazurin dye-based fluorescence assay. It is filed as cell-based. Particulars: Homo sapiens.
The nature of data set [5]: Selectivity index, ratio of IC50 for hTERT-RPE1 cells to IC50 for human PANC1 cells. It is filed as toxicity. Particulars: hTERT-RPE1 cells versus PANC1 cells, read-out: Ratio IC50.
A short description of data set [6]: Selectivity index, ratio of IC50 for hTERT-BJ cells to IC50 for human PANC1 cells. It is filed as toxicity. Particulars: hTERT-BJ cells versus PANC1 cells, read-out: Ratio IC50.
Data set [7] is described as follows: Selectivity index, ratio of IC50 for hTERT-RPE1 cells to IC50 for human HepG2 cells. It is filed as toxicity. Particulars: hTERT-RPE1 cells versus HepG2 cells, read-out: Ratio IC50.
Data set [8] in a line: Selectivity index, ratio of IC50 for hTERT-BJ cells to IC50 for human HepG2 cells. It is filed as toxicity. As to conditions: hTERT-BJ cells versus HepG2 cells, read-out: Ratio IC50.
Data set [9] in a line: Selectivity index, ratio of IC50 for hTERT-RPE1 cells to IC50 for human CCRF-CEM cells. It is filed as toxicity. Particulars: hTERT-RPE1 cells versus CCRF-CEM cells, read-out: Ratio IC50.
The nature of data set [10]: Selectivity index, ratio of IC50 for hTERT-BJ cells to IC50 for human CCRF-CEM cells. It is filed as toxicity. Particulars: hTERT-BJ cells versus CCRF-CEM cells, read-out: Ratio IC50.
Data set [11] has as its system TERT-RPE1. Put plainly: Cytotoxicity against hTERT-RPE1 cells after 48 hrs by resazurin dye-based fluorescence assay. It is filed as cell-based. As to conditions: Homo sapiens, RPE-1, 48 h.
For data set [12], the system named is hTERT-BJ. Put plainly: Cytotoxicity against hTERT-BJ cells at 6.25 uM after 48 hrs by resazurin dye-based fluorescence assay relative to control. Particulars: human. It is filed as cell-based.
The test system of data set [13] is hTERT-BJ. Kind of data set: Cytotoxicity against hTERT-BJ cells at 12.50 uM after 48 hrs by resazurin dye-based fluorescence assay relative to control. It is filed as cell-based. Particulars: human, 12.5 µM.
In data set [14] the test system is hTERT-BJ. Put plainly: Cytotoxicity against hTERT-BJ cells at 25 uM after 48 hrs by resazurin dye-based fluorescence assay relative to control. As to conditions: human. It is filed as cell-based.
Data set [15] concerns hTERT-BJ. Put plainly: Cytotoxicity against hTERT-BJ cells at 50 uM after 48 hrs by resazurin dye-based fluorescence assay relative to control. It is filed as cell-based. Particulars: human.
The test system of data set [16] is TERT-RPE1. Kind of data set: Cytotoxicity against hTERT-RPE1 cells at 6.25 uM after 48 hrs by resazurin dye-based fluorescence assay relative to control. It is filed as cell-based. As to conditions: human, tert-rpe1, 48 h.
In data set [17] the test system is TERT-RPE1. Kind of data set: Cytotoxicity against hTERT-RPE1 cells at 12.50 uM after 48 hrs by resazurin dye-based fluorescence assay relative to control. As to conditions: human, tert-rpe1, 48 h, 12.5 µM. It is filed as cell-based.
Data set [18] concerns TERT-RPE1. Put plainly: Cytotoxicity against hTERT-RPE1 cells at 25 uM after 48 hrs by resazurin dye-based fluorescence assay relative to control. It is filed as cell-based. As to conditions: human, tert-rpe1, 48 h.
The subject of data set [19] is TERT-RPE1. Kind of data set: Cytotoxicity against hTERT-RPE1 cells at 50 uM after 48 hrs by resazurin dye-based fluorescence assay relative to control. As to conditions: human, tert-rpe1, 48 h. It is filed as cell-based.

As for `CCOc1ccc2nc(Cl)c(/C=N/NC(=O)c3cc4ccccc4oc3=O)cc2c1`, the half-maximal inhibitory concentration (IC50) in data set [1] is 29.9 µM; in data set [2], 33.1 µM; in data set [3], 6.32 µM; in [4], over 50 µM; in data set [11], over 50 µM. Besides, the selectivity ratio was over 1.67 in [5]; over 1.67 in data set [6]; over 1.51 in data set [7]; over 1.51 in data set [8]; over 7.92 in data set [9]; over 7.92 in [10]. In addition, the Activity in data set [12] is on record as 2.77%; in data set [13], 5.65%; in data set [14], 3.92%; in [15] it was 3.64%; in [16] it was 1.13%; in data set [17] it was 1.23%. Besides, the Activity in data set [18] amounted to 9.5%; in data set [19], 9.97%.
`O=C(N/N=C/c1ccncc1)c1cc2cc([N+](=O)[O-])ccc2oc1=O`: the IC50 was 26.1 µM in data set [1]; 15.8 µM in data set [2]; 13 µM in data set [3]; over 50 µM in data set [4]; over 50 µM in data set [11]. Moreover, the selectivity ratio was over 1.92 in data set [5]; over 1.92 in data set [6]; over 3.15 in data set [7]; over 3.15 in data set [8]; over 3.86 in [9]; over 3.86 in data set [10]. For the same compound, the Activity in data set [12] is 0.78%; in data set [13], 5.5%; in [14], 6.48%; in [15], 7.55%; in data set [16] it was 6.97%; in [17], 10.1%. Also, the Activity in data set [18] is listed as 11.23%; in data set [19] it was 13.97%.
Consider `CCOc1ccc2nc(Cl)c(/C=N/NC(=O)c3cc4ccc(O)cc4oc3=O)cc2c1`, for which the IC50 in [1] was 0.129 µM; in data set [2] it was 19.2 µM; in data set [3] it was 17.1 µM; in [4] it was over 50 µM; in [11], over 50 µM. The selectivity ratio in data set [5] was over 388; in data set [6], over 388; in data set [7], over 2.6; in [8], over 2.6; in data set [9] it was over 2.92; in data set [10], over 2.92. In addition, the Activity was 3.67% in data set [12]; 1.47% in data set [13]; 2.26% in data set [14]; 5.63% in [15]; 3.51% in data set [16]; 8.35% in data set [17]. Also, the Activity in [18] is reported as 8.85%; in data set [19], 13.99%.
For `O=C(N/N=C/c1cc2ccccc2nc1Cl)c1cc2cc([N+](=O)[O-])ccc2oc1=O`, the IC50 was 38.8 µM in data set [1]; 22.8 µM in [2]; 26 µM in data set [3]; over 50 µM in [4]; over 50 µM in data set [11]. Also, the selectivity ratio in data set [5] is over 1.29; in [6] it was over 1.29; in data set [7], over 2.2; in data set [8] it was over 2.2; in data set [9] it was over 1.92; in data set [10], over 1.92. The Activity in data set [12] turned out to be 1.2%; in [13] it was 1.37%; in data set [14], 1.77%; in [15], 2.73%; in [16], 1.3%; in data set [17], 0.73%. Besides, the Activity is recorded as 1.96% in data set [18] and 2.33% in data set [19].
Turning to `CCOc1ccc(NC(=O)c2cc3ccc(O)cc3oc2=O)cc1`, the half-maximal inhibitory concentration (IC50) in data set [1] was 14.3 µM; in [2], 17.3 µM; in data set [3], 12.6 µM; in data set [4] it was over 50 µM; in data set [11], over 50 µM. Further, the selectivity ratio in data set [5] was over 3.5; in [6], over 3.5; in [7], over 2.88; in data set [8] it was over 2.88; in [9], over 3.97; in [10] it was over 3.97. Moreover, the Activity in data set [12] came out at 10.17%; in data set [13], 15.98%; in data set [14], 30.03%; in data set [15] it was 31.23%; in data set [16], 11.23%; in [17], 13.91%. Further, the Activity in data set [18] is reported as 19.22%; in data set [19] it was 36.28%.
For `O=C(N/N=C/c1cccnc1)c1cc2cc([N+](=O)[O-])ccc2oc1=O`, the IC50 was 11.8 µM in data set [1]; 17 µM in [2]; 17.1 µM in data set [3]; over 50 µM in [4]; over 50 µM in [11]. Moreover, the selectivity ratio is over 4.24 in data set [5]; over 4.24 in data set [6]; over 2.94 in data set [7]; over 2.94 in [8]; over 2.92 in data set [9]; over 2.92 in data set [10]. For the same compound, the Activity in data set [12] was 3.59%; in data set [13] it was 5.49%; in data set [14] it was 3.22%; in data set [15], 3.99%; in [16], 1.1%; in [17] it was 2.22%. The results for the Activity in [18] and in data set [19] were 10.95% and 17.11%, respectively.
Regarding `Cc1noc(NS(=O)(=O)c2ccc(NC(=O)c3cc4cc([N+](=O)[O-])ccc4oc3=O)cc2)c1C`, the concentration for half-maximal inhibition (IC50) was 11.9 µM in data set [1]; 15 µM in data set [2]; 14.3 µM in [3]; over 50 µM in data set [4]; over 50 µM in data set [11]. For the same compound, the selectivity ratio was over 4.19 in [5]; over 4.19 in [6]; over 3.34 in [7]; over 3.34 in [8]; over 3.49 in data set [9]; over 3.49 in data set [10]. The Activity in data set [12] amounted to 2.53%; in [13] it was 4.43%; in data set [14], 7.18%; in data set [15], 10.27%; in data set [16], 1.27%; in [17], 2.5%. In addition, the Activity in data set [18] was 4.79%; in data set [19] it was 4.06%.
Turning to `COc1cccc2c1C(=O)c1c(O)c3c(c(O)c1C2=O)C[C@@](O)(C(=O)CO)C[C@@H]3O[C@H]1C[C@H](N)[C@H](O)[C@H](C)O1` [DOXORUBICIN], the IC50 in data set [1] is 6.9 µM; in data set [2], 5.43 µM; in data set [3], 1.05 µM; in [4], under 6.25 µM; in data set [11], under 6.25 µM. The selectivity ratio in data set [5] is under 0.91; in data set [6], under 0.91; in [7], under 1.15; in [8], under 1.15; in data set [9], under 5.95; in [10], under 5.95.
